Consider 13 molecules from US9365549B2, “Hepatitis C virus inhibitors” (THERAVANCE BIOPHARMA R&D IP, LLC, priority 2012, dated 2016).

For assay [1], the system named is HCV genotype 1b replicon cell line. As to the kind of experiment: HCV Genotype 1b Replicon Assay. Format: cell-based. To be noted: Hepatitis C virus, Huh-7, Huh7 cell background, luciferase activity readout, 48 hours. From the text:
Assay 1: HCV Genotype 1b Replicon Assay
The HCV genotype 1b replicon cell line was obtained from Apath LLC (Brooklyn, N.Y.) (APC144; Huh7 cell background). This subgenomic replicon contains the N-terminus of the HCV core protein fused to the neomycin-resistance selectable marker. The EMCV IRES lies downstream and drives expression of humanized Renilla luciferase fused to the non-structural proteins NS3-NS5B. This cell line was used to determine compound potency using the luciferase activity readout as a measurement of compound inhibition of replicon levels.
(§1) Cells were grown at 37° C. in a 5% CO2 humidified incubator in DMEM (Invitrogen) with 10% FBS (HyClone), 1×NEAA (Invitrogen), 1× Pen-Strep (Invitrogen), and 500 μg/mL G418 (Invitrogen). On day 1 of the assay, cells were plated at 10,000 cells/well in white 96-well tissue culture plates (Costar) in 200 μL media lacking G418. […] Compounds were initially diluted in DMSO and then diluted another 200× in media to bring the final DMSO concentration down to 0.5%. The cells were incubated with test compounds for 48 hours. At the end of the incubation period, media and compound were removed from the plates and the luciferase activity was determined using Promega Renilla-Glo reagents.
To analyze the data, the luciferase activity was plotted vs. the compound concentration, and EC50 values were determined from a 4-parameter robust fit model with the GraphPad Prism software package (GraphPad Software, Inc., San Diego, Calif.). Results are expressed as the negative decadic logarithm of the EC50 value, pEC50.
On the technique in general: In antiviral work, replicon cells carry a viral genome segment that copies itself.

The subject of assay [2] is HCV genotype 1a replicon cell line. Kind of assay: HCV Genotype 1a Replicon Assay. Format: cell-based. The note with it: Hepatitis C virus, Huh7.5 cell background, NS3-specific protease activity in lysates, 48 or 72 hours, read-out: pEC50 Genotype 1a (converted). The method, then: Assay 2: HCV Genotype 1a Replicon Assay
The HCV genotype 1a replicon cell line was obtained from Apath LLC (APC89; Huh7.5 cell background). This subgenomic replicon contains the N-terminus of the HCV core protein fused to the neomycin-resistance selectable marker. The EMCV IRES lies downstream and drives expression of the non-structural proteins NS3-NS5B. Compound potencies were determined using the NS3-specific protease activity in lysates as a measurement of compound inhibition of replicon levels.
as §1, with “850” for “500”, “15,000” for “10,000”, “black” for “white”, “48 or 72” for “48”, “plates.” for “plates and the luciferase activity was determined using Promega Renilla-Glo reagents.”
To determine the NS3-specific protease activity in lysates, the cells were lysed at room temperature in 50 μL/well of 50 mM Hepes pH 7.5, 150 mM NaCl, 15% Glycerol, 0.15% Triton X-100, 10 mM DTT for 20 minutes with shaking. 50 μL of an NS3/4a protease-specific FRET substrate (Anaspec RET S1 Cat#22991) was then added to the wells at a final concentration of 15 μM. The plates were incubated at 37° C. for 20 minutes, which corresponds to a timepoint at which the protease activity is still in the linear phase. Protease activity was determined by measuring fluorescence (Excitation: 340 nm; Emission: 509 nm).
To analyze the data, the fluorescence was plotted vs. the compound concentration, and EC50 values were determined from a 4-parameter robust fit model using GraphPad Prism software.

Where only a bound is given, the exact number is not on record here.

For the molecule `COC(=O)N[C@H](C(=O)N1CC(C2CC2)=C[C@H]1c1nc(-c2ccc(-c3cc(Cl)c(NC(=O)c4ccc(N5CCN(C(=O)[C@H]6CC6(C)C)C[C@H]5C)nc4)cc3OC(F)(F)F)cc2)c[nH]1)C(C)C` [Example 4, ((S)-1-{(S)-2-[4-(5′-Chloro-4′-{[6-((R)-4-(S)-2,2-dimethylcyclopropanecarbonyl-2-methyl-piperazin-1-yl)-pyridine-3-carbonyl]-amino}-2′-trifluoromethoxy-biphenyl-4-yl)-1H-imidazol-2-yl]-4-cyclopropyl-2,5-dihydro-pyrrole-1-carbonyl}-2-methyl-propyl)-carbamic acid methyl ester], the EC50 in assay [1] and in assay [2] was less than 0.1 nM throughout.
For the molecule `COC(=O)N[C@H](C(=O)N1C[Si](C)(C)C[C@H]1c1nc(-c2ccc(-c3cc(Cl)c(NC(=O)c4ccc(N5CCN(C(=O)[C@H]6CC6(C)C)C[C@H]5C)nc4)cc3OC(F)(F)F)cc2)c[nH]1)C(C)C` [Example 5, ((S)-1-{(R)-5-[4-(5′-Chloro-4′-{[6-((R)-4-(S)-2,2-dimethylcyclopropanecarbonyl-2-methyl-piperazin-1-yl)-pyridine-3-carbonyl]-amino}-2′-trifluoromethoxy-biphenyl-4-yl)-1H-imidazol-2-yl]-3,3-dimethyl-[1,3]azasilolidine-1-carbonyl}-2-methyl-propyl)-carbamic acid methyl ester], the EC50 in assay [1] and in assay [2] was less than 0.1 nM in each case.
For `COC(=O)N[C@H](C(=O)N1C[C@@H](C)C[C@H]1c1nc2c(ccc3cc(-c4cc(F)c(NC(=O)c5ccc(N6CCN(C(=O)C(C)(C)C)C[C@H]6C)nc5)cc4OC(F)(F)F)ccc32)[nH]1)C1CCOCC1` [Example 5-2], the EC50 in assay [1] and in assay [2] was less than 0.1 nM each time.
Consider `COC(=O)N[C@H](C(=O)N1C[C@@H](C)C[C@H]1c1nc2c(ccc3cc(-c4cc(F)c(NC(=O)c5ccc(N6CCN(C(=O)C(C)(C)CO)C[C@H]6C)nc5)cc4OC(F)(F)F)ccc32)[nH]1)C1CCOCC1` [Example 5-3], for which the EC50 in assay [1] and in assay [2] was less than 0.1 nM in each case.
For the molecule `COC(=O)N[C@H](C(=O)N1C[C@@H](C)C[C@H]1c1nc2c(ccc3cc(-c4cc(Cl)c(C(=O)Nc5ccc(N6CCN(C(=O)C(C)(C)C)C[C@H]6C)nc5)cc4OC(F)(F)F)ccc32)[nH]1)C1CCOCC1` [Example 5-6], the EC50 in assay [1] and in assay [2] was less than 0.1 nM throughout.
Take `COC(=O)N[C@H](C(=O)N1C[C@@H](C)C[C@H]1c1nc2c(ccc3cc(-c4cc(Cl)c(C(=O)Nc5ccc(N6CCN(C(=O)C(C)(C)CO)C[C@H]6C)nc5)cc4OC(F)(F)F)ccc32)[nH]1)C1CCOCC1` [Example 5-7]: the EC50 in assay [1] and in assay [2] was less than 0.1 nM each time.
Consider `COC(=O)N[C@H](C(=O)N1[C@@H]2C[C@@H]2CC[C@H]1c1nc(-c2ccc(-c3cc(Cl)c(NC(=O)c4ccc(N5CCN(C(=O)C(C)(C)C)C[C@H]5C)nc4)cc3OC(F)(F)F)cc2)c[nH]1)C(C)C` [Example 5-10], for which the EC50 in assay [1] and in assay [2] was less than 0.1 nM in each case.
`COC(=O)N[C@H](C(=O)N1C[Si](C)(C)C[C@H]1c1nc(-c2ccc(-c3ccc(NC(=O)c4ccc(N5CCN(C(=O)C(C)(C)C)C[C@H]5C)nc4)cc3OC(F)(F)F)cc2)c[nH]1)C(C)C` [Example 7, [(S)-1-((R)-5-{4-[4′-({6-[(R)-4-(2,2-dimethyl-propionyl)-2-methyl-piperazin-1-yl]-pyridine-3-carbonyl}-amino)-2′-trifluoromethoxy-biphenyl-4-yl]-1H-imidazol-2-yl}-3,3-dimethyl-[1,3]azasilolidine-1-carbonyl)-2-methyl-propyl]-carbamic acid methyl ester]: the EC50 in assay [1] is less than 0.1 nM; in assay [2], 0.1 to 1 nM.
Regarding `COC(=O)N[C@H](C(=O)N1C[C@@H](C)C[C@H]1c1nc2c(ccc3cc(-c4cc(Cl)c(NC(=O)c5ccc(N6CCN(C(=O)C(C)(C)C)C[C@H]6C)nc5)cc4OC(F)(F)F)ccc32)[nH]1)C(C)C` [Example 8, [(S)-1-((2S,4S)-2-{7-[5-Chloro-4-({6-[(R)-4-(2,2-dimethyl-propionyl)-2-methyl-piperazin-1-yl]-pyridine-3-carbonyl}-amino)-2-trifluoromethoxy-phenyl]-3H-naphtho[1,2-d]imidazol-2-yl}-4-methyl-pyrrolidine-1-carbonyl)-2-methyl-propyl]-carbamic acid methyl ester], the EC50 in assay [1] and in assay [2] was less than 0.1 nM in each case.
Consider `COC(=O)N[C@H](C(=O)N1C[C@@H](C)C[C@H]1c1nc2c(ccc3cc(-c4cc(Cl)c(NC(=O)c5ccc(N6CCN(C(=O)C7CC7)C[C@H]6C)nc5)cc4OC(F)(F)F)ccc32)[nH]1)C(C)C` [Example 9, ((S)-1-{(2S,4S)-2-[7-(5-Chloro-4-{[6-((R)-4-cyclopropanecarbonyl-2-methyl-piperazin-1-yl)-pyridine-3-carbonyl]-amino}-2-trifluoromethoxy-phenyl)-3H-naphtho[1,2-d]imidazol-2-yl]-4-methyl-pyrrolidine-1-carbonyl}-2-methyl-propyl)-carbamic acid methyl ester], for which the EC50 in assay [1] and in assay [2] was less than 0.1 nM throughout.
`COC(=O)N[C@H](C(=O)N1C[C@@H](C)C[C@H]1c1nc2c(ccc3cc(-c4cc(Cl)c(NC(=O)c5ccc(N6CCN(C(=O)[C@H]7CC7(C)C)C[C@H]6C)nc5)cc4OC(F)(F)F)ccc32)[nH]1)C(C)C` [Example 10, [(S)-1-((2S,4S)-2-{7-[5-Chloro-4-({6-[(R)-4-((S)-2,2-dimethylcyclopropanecarbonyl)-2-methyl-piperazin-1-yl]-pyridine-3-carbonyl}-amino)-2-trifluoromethoxy-phenyl]-3H-naphtho[1,2-d]imidazol-2-yl}-4-methyl-pyrrolidine-1-carbonyl)-2-methyl-propyl]-carbamic acid methyl ester]: the EC50 in assay [1] and in assay [2] was less than 0.1 nM each time.
For the molecule `COC(=O)N[C@H](C(=O)N1C[C@@H](C)C[C@H]1c1nc2c(ccc3cc(-c4ccc(C(=O)Nc5ccc(N6CCN(C(=O)C(C)(C)C)C[C@H]6C)nc5)cc4OC(F)(F)F)ccc32)[nH]1)C(C)C` [Example 13, ((S)-1-{(2S,4S)-2-[7-(4-{6-[(R)-4-(2,2-Dimethyl-propionyl)-2-methyl-piperazin-1-yl]-pyridin-3-ylcarbamoyl}-2-trifluoromethoxy-phenyl)-3H-naphth[1,2-d]imidazol-2-yl]-4-methyl-pyrrolidine-1-carbonyl}-2-methyl-propyl)-carbamic acid methyl ester], the EC50 in assay [1] and in assay [2] was less than 0.1 nM in each case.
For the molecule `COC(=O)N[C@H](C(=O)N1C[C@@H](C)C[C@H]1c1nc2c(ccc3cc(-c4cc(Cl)c(NC(=O)c5ccc(N6CCN(C(=O)C(C)(C)C)C[C@H]6C)nc5)cc4OC(F)(F)F)ccc32)[nH]1)C1CCOCC1` [Example 14, [(S)-2-((2S,4S)-2-{7-[4-({6-[(R)-4-(2,2-Dimethyl-propionyl)-2-methyl-piperazin-1-yl]-pyridine-3-carbonyl}-amino)-5-chloro-2-trifluoromethoxy-phenyl]-3H-naphtho[1,2-d]imidazol-2-yl}-4-methyl-pyrrolidin-1-yl)-2-oxo-1-(tetrahydropyran-4-yl)-ethyl]-carbamic acid methyl ester], the EC50 in assay [1] and in assay [2] was less than 0.1 nM each time.
